The values below come from patent publication US9115143B2, “Substituted indole derivatives as gamma secretase modulators” (Janssen Pharmaceuticals, Inc., priority 2011, dated 2015).

One assay concerns Aβ42. Description: Screening for γ-secretase-modulating activity: Aβ42 in supernatant of SKNBE2 cells carrying hAPP 695 wild type (Alphalisa). In kind it is cell-based, human. The note with it: overnight incubation, Alphalisa on supernatant. In short, it runs like this:
(§1)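 Secreted Aβ42 (C-terminal/N-terminal antibody pair) and Aβtotal (N-terminal/mid-region pair) were quantified by AlphaLISA after overnight compound exposure of wild-type hAPP 695 SKNBE2 cells at 37 °C. Values expressed relative to compound-free maximum, with IC50 from nonlinear 4-parameter regression.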
(In Alpha technology, singlet oxygen from a donor bead excites a nearby acceptor bead.)

The subject of the next assay is Aβtotal. Briefly: Screening for γ-secretase-modulating activity: Aβtotal in supernatant of SKNBE2 cells carrying hAPP 695 wild type (Alphalisa). Type of assay: cell-based, human. As to conditions: overnight incubation, Alphalisa on supernatant. In outline:
as §1

Where [1] appears, read: SKNBE2 human neuroblastoma cells carrying hAPP 695 wild type.
Setting [2] is: Homo sapiens, SKNBE2, SKNBE2 human neuroblastoma cells carrying hAPP 695 wild type.

Structures are written as SMILES. A value given as a limit tells only on which side of the number the result lay.

What is called IC50 is the midpoint of a concentration-inhibition curve. Lower therefore signals higher potency. For `COCc1ccccc1C1CCCn2nc(-c3cc4c(OC)c(C#N)ccc4[nH]3)nc21` (stereo not shown) [Compound 91, 4-methoxy-2-[5,6,7,8-tetrahydro-8-[2-(methoxymethyl)phenyl][1,2,4]triazolo[1,5-a]pyridin-2-yl]-1H-indole-5-carbonitrile], the figures for the half-maximal inhibitory concentration (IC50) in the assay with Aβ42 (setting [1]) and in the assay on Aβtotal (setting [1]) were 1200 nM and over 10 µM, respectively.

Regarding `COc1c(C#N)ccc2[nH]c(-c3nc4n(n3)CCCOC4c3ccc(F)cc3C)cc12` (stereo not shown) [Compound 52, 2-[9-(4-fluoro-2-methylphenyl)-6,7-dihydro-5H,9H-[1,2,4]triazolo[5,1-c][1,4]oxazepin-2-yl]-4-methoxy-1H-indole-5-carbonitrile], the IC50 in the assay on Aβ42 (setting [1]) is 44 nM; with Aβtotal (setting [2]), over 10 µM.

With `COc1c(C#N)ccc2[nH]c(-c3nc4n(n3)CCOC4c3cc(C(F)(F)F)ccc3F)cc12` (single isomer, unassigned) [Compound 161, 2-[8-[2-fluoro-5-(trifluoromethyl)phenyl]-5,6-dihydro-8H-[1,2,4]triazolo[5,1-c][1,4]oxazin-2-yl]-4-methoxy-1H-indole-5-carbonitrile], the IC50 in the assay on Aβ42 (setting [1]) is 98 nM; in the assay with Aβtotal (setting [1]), over 10 µM.

Take `Cc1cc(F)ccc1C1OCCn2nc(-c3cc4cc(-c5cnn(C)c5)ccc4[nH]3)nc21` (stereo not shown) [Compound 107, 8-(4-fluoro-2-methylphenyl)-5,6-dihydro-2-[5-(1-methyl-1H-pyrazol-4-yl)-1H-indol-2-yl]-8H-[1,2,4]triazolo[5,1-c][1,4]oxazine]: the values for the IC50 in the assay on Aβ42 (setting [2]) and in the assay with Aβtotal (setting [2]) were 148 nM and over 10 µM, respectively.

Regarding `COc1c(C#N)ccc2[nH]c(-c3nc4n(n3)CCOC4c3c(F)cccc3C(F)(F)F)cc12` (stereo not shown) [Compound 125, 2-[8-[2-fluoro-6-(trifluoromethyl)phenyl]-5,6-dihydro-8H-[1,2,4]triazolo[5,1-c][1,4]oxazin-2-yl]-4-methoxy-1H-indole-5-carbonitrile], the IC50 with Aβ42 (setting [1]) is 71 nM; with Aβtotal (setting [2]) it was over 10 µM.

Take `COc1ccccc1C1CCCn2nc(-c3cc4cc(-n5cnc(C)c5)ccc4[nH]3)nc21` (single isomer, unassigned) [Compound 80, 5,6,7,8-tetrahydro-8-(2-methoxyphenyl)-2-[5-(4-methyl-1H-imidazol-1-yl)-1H-indol-2-yl]-[1,2,4]triazolo[1,5-a]pyridine]: the IC50 in the assay on Aβ42 (setting [1]) is 468 nM; in the assay with Aβtotal (setting [2]) it was over 10 µM.

On to `COCCOc1c(C#N)ccc2[nH]c(-c3cn4c(n3)C(c3ccc(F)cc3C)OCC4)cc12` (stereo not shown) [Compound 167, 2-[8-(4-fluoro-2-methylphenyl)-5,6-dihydro-8H-imidazo[2,1-c][1,4]oxazin-2-yl]-4-(2-methoxyethoxy)-1H-indole-5-carbonitrile], for which the IC50 was 257 nM in the assay on Aβ42 (setting [2]) and over 10 µM with Aβtotal (setting [2]).

As for `Cc1cc(F)ccc1C1CCCn2nc(-c3cc4nc(-c5cnn(C)c5)ccc4[nH]3)nc21` (stereo not shown) [Compound 70, 8-(4-fluoro-2-methylphenyl)-5,6,7,8-tetrahydro-2-[5-(1-methyl-1H-pyrazol-4-yl)-1H-pyrrolo[3,2-b]pyridin-2-yl]-[1,2,4]triazolo[1,5-a]pyridine], the IC50 in the assay with Aβ42 (setting [1]) was 1000 nM; with Aβtotal (setting [1]) it was over 10 µM.

On to `COc1c(C#N)ccc2[nH]c(-c3cn4c(n3)C(c3ccc(F)c(Cl)c3)OCC4)cc12` (stereo not shown) [Compound 143, 2-[8-(3-chloro-4-fluorophenyl)-5,6-dihydro-8H-imidazo[2,1-c][1,4]oxazin-2-yl]-4-methoxy-1H-indole-5-carbonitrile], for which the results for the IC50 with Aβ42 (setting [1]) and with Aβtotal (setting [2]) were 186 nM and over 10 µM, respectively.

Turning to `Cc1ccc(C(F)(F)F)cc1C1OCCn2nc(-c3cc4cc(C#N)ccc4[nH]3)nc21` (stereo not shown) [Compound 34, 2-[5,6-dihydro-8-[2-methyl-5-(trifluoromethyl)phenyl]-8H-[1,2,4]triazolo[5,1-c][1,4]oxazin-2-yl]-1H-indole-5-carbonitrile], the IC50 in the assay on Aβ42 (setting [2]) is 692 nM; in the assay on Aβtotal (setting [2]) it was over 10 µM.

`COc1c(C#N)ccc2[nH]c(-c3cn4c(n3)C(c3c(C)cccc3F)OCC4)cc12` (stereo not shown) [Compound 124, 2-[8-(2-fluoro-6-methylphenyl)-5,6-dihydro-8H-imidazo[2,1-c][1,4]oxazin-2-yl]-4-methoxy-1H-indole-5-carbonitrile]: the figures for the IC50 with Aβ42 (setting [1]) and in the assay with Aβtotal (setting [2]) were 47 nM and over 10 µM, respectively.

In the case of `COc1c(C#N)ccc2[nH]c(-c3nc4n(n3)CCOC4c3ccccc3C(F)(F)F)cc12` (single isomer, unassigned) [Compound 57, 2-[5,6-dihydro-8-[2-(trifluoromethyl)phenyl]-8H-[1,2,4]triazolo[5,1-c][1,4]oxazin-2-yl]-4-methoxy-1H-indole-5-carbonitrile], the half-maximal inhibitory concentration (IC50) with Aβ42 (setting [1]) is 603 nM; in the assay on Aβtotal (setting [1]), over 10 µM.

`Cc1ccccc1C1CCCn2nc(-c3cc4cc(C#N)ncc4[nH]3)nc21` (stereo not shown) [Compound 24, 2-[5,6,7,8-tetrahydro-8-(2-methylphenyl)[1,2,4]triazolo[1,5-a]pyridin-2-yl]-1H-pyrrolo[2,3-c]pyridine-5-carbonitrile]: the IC50 in the assay on Aβ42 (setting [2]) is 257 nM; in the assay with Aβtotal (setting [2]), over 10 µM.

As to `COc1c(C#N)ccc2[nH]c(-c3cn4c(n3)C(c3ccc(F)c(Cl)c3)OCC4)cc12` (stereo not shown) [Compound 155, 2-[8-(3-chloro-4-fluorophenyl)-5,6-dihydro-8H-imidazo[2,1-c][1,4]oxazin-2-yl]-4-methoxy-1H-indole-5-carbonitrile], the 50% inhibitory concentration (IC50) in the assay on Aβ42 (setting [1]) is 1480 nM; in the assay on Aβtotal (setting [1]) it was over 10 µM.

Turning to `COc1c(C#N)ccc2[nH]c(-c3nc4n(n3)CCOC4c3c(C)cccc3F)cc12` (stereo not shown) [Compound 129, 2-[8-(2-fluoro-6-methylphenyl)-5,6-dihydro-8H-[1,2,4]triazolo[5,1-c][1,4]oxazin-2-yl]-4-methoxy-1H-indole-5-carbonitrile], the IC50 was 46 nM in the assay with Aβ42 (setting [1]) and over 10 µM in the assay on Aβtotal (setting [2]).

For the molecule `COc1c(-n2cnc(C)c2)ccc2[nH]c(-c3cn4c(n3)C(c3ccc(F)cc3C)CCC4)cc12` (single isomer, unassigned) [Compound 79, 8-(4-fluoro-2-methylphenyl)-5,6,7,8-tetrahydro-2-[4-methoxy-5-(4-methyl-1H-imidazol-1-yl)-1H-indol-2-yl]-imidazo[1,2-a]pyridine], the figures for the 50% inhibitory concentration (IC50) with Aβ42 (setting [1]) and in the assay on Aβtotal (setting [1]) were 186 nM and over 10 µM, respectively.

In the case of `COc1c(C#N)ccc2[nH]c(-c3cn4c(n3)C(c3c(F)cccc3Cl)OCC4)cc12` (stereo not shown) [Compound 119, 2-[8-(2-chloro-6-fluorophenyl)-5,6-dihydro-8H-imidazo[2,1-c][1,4]oxazin-2-yl]-4-methoxy-1H-indole-5-carbonitrile], the IC50 with Aβ42 (setting [2]) is 55 nM; with Aβtotal (setting [2]), over 10 µM.

With `COc1c(C#N)ccc2[nH]c(-c3nc4n(n3)CCN(C)C4c3ccc(F)cc3C)cc12` (stereo not shown) [Compound 58, 2-[8-(4-fluoro-2-methylphenyl)-5,6,7,8-tetrahydro-7-methyl[1,2,4]triazolo[1,5-a]pyrazin-2-yl]-4-methoxy-1H-indole-5-carbonitrile], the IC50 in the assay with Aβ42 (setting [2]) is 49 nM; in the assay with Aβtotal (setting [2]), over 10 µM.

For `COc1c(-n2cnc(C)c2)ccc2[nH]c(-c3cn4c(n3)C(c3ccc(F)cc3C)CCC4)cc12` (single isomer, unassigned) [Compound 78, 8-(4-fluoro-2-methylphenyl)-5,6,7,8-tetrahydro-2-[4-methoxy-5-(4-methyl-1H-imidazol-1-yl)-1H-indol-2-yl]-imidazo[1,2-a]pyridine], the IC50 is 30 nM in the assay with Aβ42 (setting [1]) and over 10 µM with Aβtotal (setting [2]).

In the case of `Cc1cn(-c2ccc3cc(-c4nc5n(n4)CCCC5c4ccc(F)cc4C)[nH]c3c2)cn1` (stereo not shown) [Compound 93], the IC50 with Aβ42 (setting [2]) was 1480 nM; with Aβtotal (setting [2]), over 10 µM.

`COc1c(C#N)ccc2[nH]c(-c3nc4n(n3)CCOC4c3ccccc3Cl)cc12` (stereo not shown) [Compound 130, 2-[8-(2-chlorophenyl)-5,6-dihydro-8H-[1,2,4]triazolo[5,1-c][1,4]oxazin-2-yl]-4-methoxy-1H-indole-5-carbonitrile]: the IC50 in the assay on Aβ42 (setting [1]) was 79 nM; with Aβtotal (setting [2]) it was over 10 µM.

For `Cc1cn(-c2cnc3[nH]c(-c4nc5n(n4)CCCC5c4ccc(F)cc4C)cc3c2)cn1` (single isomer, unassigned) [Compound 88, 8-(4-fluoro-2-methylphenyl)-5,6,7,8-tetrahydro-2-[5-(4-methyl-1H-imidazol-1-yl)-1H-pyrrolo[2,3-b]pyridin-2-yl]-[1,2,4]triazolo[1,5-a]pyridine], the half-inhibitory concentration (IC50) in the assay with Aβ42 (setting [1]) was 65 nM; in the assay with Aβtotal (setting [2]) it was over 10 µM.

Take `COCc1ccccc1C1OCCn2cc(-c3cc4c(OC)c(C#N)ccc4[nH]3)nc21` (stereo not shown) [Compound 120, 2-[5,6-dihydro-8-[2-(methoxymethyl)phenyl]-8H-imidazo[2,1-c][1,4]oxazin-2-yl]-4-methoxy-1H-indole-5-carbonitrile]: the IC50 with Aβ42 (setting [1]) is 123 nM; in the assay with Aβtotal (setting [2]), over 10 µM.

With `Cc1cc(F)ccc1C1CCCn2nc(-c3cc4cc(C#N)ncc4[nH]3)nc21` (stereo not shown) [Compound 68, 2-[8-(4-fluoro-2-methylphenyl)-5,6,7,8-tetrahydro[1,2,4]triazolo[1,5-a]pyridin-2-yl]-1H-pyrrolo[2,3-c]pyridine-5-carbonitrile], the IC50 was 316 nM in the assay with Aβ42 (setting [2]) and over 10 µM with Aβtotal (setting [2]).

Turning to `COc1c(C#N)ccc2[nH]c(-c3nc4n(n3)CCOC4c3cccc(C)c3F)cc12` (single isomer, unassigned) [Compound 149, 2-[8-(2-fluoro-3-methylphenyl)-5,6-dihydro-8H-[1,2,4]triazolo[5,1-c][1,4]oxazin-2-yl]-4-methoxy-1H-indole-5-carbonitrile], the half-inhibitory concentration (IC50) in the assay with Aβ42 (setting [1]) is 1860 nM; with Aβtotal (setting [1]), over 10 µM.

In the case of `Cc1cc(F)ccc1C1OCCn2nc(-c3cc4c(OC(C)C)c(C#N)ccc4[nH]3)nc21` (single isomer, unassigned) [Compound 173, 2-[8-(4-fluoro-2-methylphenyl)-5,6-dihydro-8H-[1,2,4]triazolo[5,1-c][1,4]oxazin-2-yl]-4-(1-methylethoxy)-1H-indole-5-carbonitrile], the figures for the IC50 with Aβ42 (setting [1]) and in the assay with Aβtotal (setting [2]) were 251 nM and over 10 µM, respectively.
